Consider 1 compound from US5484778A, “Phthalocyanine photosensitizers for photodynamic therapy and methods for their use” (priority 1993, dated 1996).

Entries after “also recorded” stand apart in the source; their conditions may differ.

In data set [1] the test system is Chinese hamster V79-379 cells. The experiment in a line: Uptake of phthalocyanines by V79 cells relative to AlPcCl (Table 1). In kind it is cell-based. The settings on record: for Uptake, efficiency relative to 1 μM AlPcCl: 18 h. How it is done: Chinese hamster V79-379 lung fibroblasts were grown in monolayer culture in McCoy's 5A medium (Gibco Laboratories, Grand Island, N.Y.) augmented with 10% calf serum and buffered with 20 mM HEPES (pH 7.4).
Total uptake was determined by scraping the phthalocyanine-treated monolayer, collecting the cells on a glass-fiber filter, and extracting the phthalocyanine in ethanol, as previously described by Ramakrishnan, et al., 1989. (Ramakrishnan, N., M. E. Clay, M. F. Horng, A. R. Antunez, & H. H. Evans, "DNA Lesions and DNA Degradation in Mouse Lymphoma L5178Y Cells After Photodynamic Treatment Sensitized by Chloroaluminum Phthalocyanine",Photochem. Photobiol, in press, 1989). The amount of drug was determined by absorption at 674 nm and expressed relative to the number of cells, as measured in a Coulter cell counter on an aliquot of the cell population. Controls included cells not treated with drug, medium alone, and drug-containing medium without cells. The results of the total uptake of the various compositions of the present invention in comparison to AlPcCl are set forth below in Table 1.
The cells were treated with 1 μM AlPcCl (from Eastman Kodak, Rochester, N.Y.) or with phthalocyanine compositions I-VI (0.5-1.0 μM final concentration in the medium) for 18 hours by adding the appropriate volume of a 1.0 mM stock solution in dimethylformamide (DMF) to the culture medium. The growth medium was replaced with 4 ml Hank's balanced salt solution (HBSS), and the cells were irradiated. The light source was a 500 W tungsten-halogen lamp located approximately 29 inches below the surface of a glass exposure tray. The visible light administered to the cells was filtered to allow passage of only that portion of the visible spectrum above 600 nm (Lee Primary red filter No. 106, Vincent Lighting, Cleveland, Ohio). The fluence rate was approximately 0.074 kJ/m^2 /s at the level of the cell monolayer.
All of the compounds have been examined for the extent of cellular uptake after exposure of V79 cells to 1 μM or less in complete medium, and the data of Table 1 are presented relative to the uptake from 1 μM AlPcCl, which was 0.723±0.172 nmole/10^7 cells (mean ±S. D., 25 determinations). […] In particular, when the concentration of Compound IV was 1 μM in the medium, the uptake into the cells was sufficiently high that some of the uptake and phototoxicity studies were repeated at 0.5 μM.

In data set [2] the test system is Chinese hamster V79-379 cells. The experiment in a line: Clonogenic cell survival / photocytotoxicity in V79 cells (Table 1, FIG. 1, FIG. 2). The format is cell-based. As to conditions: for CF10 (AlPcCl)/CF10 (Pc) / F10 (AlPcCl)/F10 (Pc): 18 h; for photosensitizing efficiency / photocytotoxicity (in words): V79 cells, red light. The essentials: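 V79-379 Chinese hamster lung fibroblasts were loaded with phthalocyanine (0.5-1.0 μM final) for 18 hours, then irradiated in HBSS with >600 nm red light at approximately 0.074 kJ/m^2/s. Survival was scored by colony formation (≥50 cells, 7-10 days), giving F10 and the uptake-adjusted CF10 (intracellular concentration × fluence) relative to 1 μM AlPcCl.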

Data set [3] relates to RIF-1 tumors. Nature of the data set: PDT of RIF-1 implanted tumors (Table 7). In kind it is in vivo, C3H/HeN mice. As to conditions: for effect on tumor volume / growth (in words): 1 mg/kg. The essentials: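 C3H/HeN mice each carried one RIF-1 fibrosarcoma on the back and received 1 mg/kg phthalocyanine as a corn-oil suspension. Volume was measured daily by calipers from a 50±10 mm^3 start and calculated with the hemiellipsoid model.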

The subject of data set [4] is chemically-induced benign skin papillomas. The experiment in a line: PDT of chemically induced skin tumors in SENCAR mice (FIG. 4). In kind it is in vivo. The settings on record: 0.5 and 1.0 mg/kg i.p. in DPPC liposomes. As for the experimental part: 6-week-old female SENCAR mice received a single topical application of 5 μg DMBA in 0.2 ml acetone on the dorsal skin as tumor initiator. One week later, the animals were started on twice-weekly topical applications of 1 μg TPA in 0.2 ml acetone as tumor promoter. All of the animals developed tumors at 12 weeks. Mice that developed 4-5 tumors per animal averaging 5-8 mm in diameter and 2-5 mm in thickness were used. Pc IV, entrapped in DPPC liposomes was administered intraperitoneally at doses of either 0.5 or 1.0 mg/kg and 24 hrs later the tumor area was illuminated with light from an argon pumped dye laser tuned at 675 nm for a total light dose of 135 J/cm^2 (75 mW/cm^2). All possible controls were included; either the animals were untreated, treated only with laser light or treated only with Pc IV alone.

`CN(C)CCC[Si](C)(C)O[Si]1(O)n2c3c4ccccc4c2N=C2N=C(N=c4c5ccccc5c(n41)=NC1=NC(=N3)c3ccccc31)c1ccccc12` (stereo not drawn) [Compound IV, HOSiPcOsi(CH3)2)(CH2)3 N(CH3)2]: the results for the “Uptake, efficiency relative to 1 μM AlPcCl” value in data set [1] (0.5 μM) and in data set [1] (1.0 μM) were 1.3 and 1.64, respectively. In data set [1] (V79 cells, 1 μM or less, compared with AlPcCl), the “cellular uptake (in words)” value is “taken up into the cells more efficiently than was AlPcCl”. Also, the “CF10 (AlPcCl)/CF10 (Pc)” value in data set [2] (0.5 μM) was 3.9; in data set [2] (1.0 μM, CF10 = intracellular concentration x fluence reducing survival to 10%), 3.5. Besides, the “F10 (AlPcCl)/F10 (Pc)” value is recorded as 1.85 in data set [2] (0.5 μM) and 4.25 in data set [2] (1.0 μM, F10 = fluence reducing survival to 10%). In addition, the “photosensitizing efficiency / photocytotoxicity (in words)” value in data set [2] is “almost twice as efficient as the standard AlPcCl; also recorded: most efficient photosensitizer”; in data set [2] (listed as SiPc(OH)(OSi(CH3)2 (CH2)3 N(CH3)2)), “most efficient photosensitizer, as judged by uptake, growth delay, and photocytotoxicity”. Besides, the “Doubling Time of Initial Tumor Volume after PDT” value in data set [3] (1 mg/kg in corn oil, 675 nm, 135 J/cm^2) is recorded as 16 days. The “effect on tumor volume / growth (in words)” value in data set [3] (listed as Pc IV) is “significantly impair the growth of the tumors”; in data set [3] (listed as PcIV), “particularly effective in reducing tumor volume”. For the same compound, the tumor regrowth result in data set [3] (after PDT, from the tumor margins) is on record as “regrowth of tumors from the tumor margins occurred”. The “tumor volume (eventual)” value in data set [4] (675 nm, 135 J/cm^2) is 0. In addition, in data set [4] (34 days), the tumor recurrence result is “did not return for the length of the study, 34 days”.
